Laboratory results published in publication PMC7079008, “Compactness of Protein Folds Alters Disulfide‐Bond Reducibility by Three Orders of Magnitude: A Comprehensive Kinetic Case Study on the Reduction of Differently Sized Tryptophan Cage Model Proteins” (Chembiochem, 2019).
Where a SMILES comes first, the peptide text is derived from it. Bridges are numbered along the chain shown (N, C = ends).

Assay: SS bond reduction by DTT monitored by 1H NMR
Type: physicochemical
Conditions: 1.7 mM protein, twofold excess of DTT, 15 °C; for DTT: Conversion rate / DTT: Elapsed time to steady state: pH 7; for DTT: t1/2 of reduction: pH 7, calculated from k1 (Eq. 12); for DTT: k1: pH 7, parameter estimation (phase 1 data)
Description: An appropriate reduction protocol was required to unambiguously determine the 3D structures of the above‐introduced pure reduced states. Thus, in agreement with the above discussion, only mild conditions (15 °C and twofold molar excess of […]) were used for the reduction of the four different miniproteins. Determining the structural properties and reduction rates under the same conditions allowed us to elucidate the basis of the observed differences in the reduction rates. […] It appears as if “cutting back” on the α‐helical segment strongly affects the SS bond reducibility, even though the SS bonds of all four models are near the surfaces (Figure 7 A). To our great surprise, we recorded three orders of magnitude differences between the reduction rate constants (Table 3). Whereas the reduction of E2_SS is still extremely fast, tE2_SS/1/2 <≈1 min, that of E5_SS occurs on the timescale of minutes: tE5_SS/1/2 ≈14 min. […] The conversion rate was close to complete for the shorter peptide of E2_SS, whereas the reduction of E19_SS was only 88 % complete. The kinetic parameters of all four model proteins were determined by using a twofold molar excess of DTT, at pH 7, and T=15 °C.
Monitoring reduction kinetics: Peptide samples were prepared between 0.8 and 1.8 mM in 50 mM NaH2PO4–Na2HPO4 buffer (600 μL, pH 6.95), with 10 % D2O. A 0.1 M solution of NaOH was used to set the pH to 7. Sodium trimethylsilylpropanesulfonate (DSS) was added as the internal proton reference standard, set to δ=0.0 ppm under all conditions. ^1H,^1H 2D homonuclear spectra were recorded for the oxidized peptide; thereafter, upon the addition of a different excess of 0.5 M TCEP or DTT, reduction was observed by recording a series of 1D ^1H spectra (ns=64 or 128 scans). Finally, at the end point, ^1H,^1H homonuclear 2D spectra were recorded on the reduced peptide. Data sets were processed by using TopSpin 3.2 software. The conversion rate was determined by using the relative integral of the Trp Hϵ1 signal in the oxidized (IntOX) and reduced (IntRED) form. Each integral was normalized to the integral of DSS. The concentrations were determined by the ratio of the oxidized and reduced integrals and the initial protein concentration.
Parameter estimation: Kinetic parameter estimation was based on the integral of selected NMR signals considered to be proportional to the concentration of the relevant species. The mechanism taken into account is that given by Equations (8), (9), (10), (11):(8) SS+Red→k12SH+Ox (9) 2SH+O2→k2SS (10) [drawing 1] (11) [drawing 2]
in which SS is the […] model protein with an intramolecular S−S bond; 2 SH is the same protein with the S−S bond reduced to two −SH groups; and the symbol Ø means a different phase from that of the reaction mixture, that is, the polymer aggregate as a sink in the first case and the gas phase as a source in the second case.
For parameter estimation, the COPASI 4.16 (Build 104) Biochemical System Simulator software (http://copasi.org/) was used, with the parameter estimation option of the Levenberg–Marquardt method.
To determine the half‐life and initial concentration of the SS species, a kinetic analysis of the temporal evolution of the reactions was performed. […] From the kinetic analysis, the initial concentration of oxygen ([O2]0) could also be estimated, except for one case in which the uncertainty of this parameter was very large, due to the lack of sufficient experimental data.
Because reduction follows second‐order kinetics, the half‐life (t 1/2) of model proteins also depends on the actual concentration of the RA in the reaction mixture [Eq. (12):(12) t1/2=1/k1(cRed,0-cSS,0)ln2-cSS,0/cRed,0

SMILES | DTT: Conversion rate | DTT: Elapsed time to steady state [h] | DTT: t1/2 of reduction [h] | DTT: k1 [M⁻¹ s⁻¹]
CC[C@H](C)[C@@H]1NC(=O)[C@H](Cc2ccc(O)cc2)NC(=O)[C@H](CC(C)C)NC(=O)[C@H](CCCNC(=N)N)NC(=O)[C@H](C(C)C)NC(=O)[C@@H](N)CSSC[C@@H](C(=O)O)NC(=O)[C@@H]2CCCN2C(=O)[C@@H]2CCCN2C(=O)[C@@H]2CCCN2C(=O)[C@H](CCCNC(=N)N)NC(=O)CNC(=O)[C@H](CO)NC(=O)[C@H](CO)NC(=O)[C@@H]2CCCN2C(=O)CNC(=O)CNC(=O)[C@H](CC(=O)O)NC(=O)[C@H](CCCCN)NC(=O)[C@H](CC(C)C)NC(=O)[C@H](Cc2c[nH]c3ccccc23)NC(=O)[C@H](CCC(N)=O)NC1=O [E2_SS] (H-CVRLYIQWLKDGGPSSGRPPPC-OH; disulfide 1-22) | 100% | 5 | 1.03 | 0.0673
CC[C@H](C)[C@@H]1NC(=O)[C@H](Cc2ccc(O)cc2)NC(=O)[C@H](CC(C)C)NC(=O)[C@H](CCCNC(=N)N)NC(=O)[C@H](C(C)C)NC(=O)[C@@H](NC(=O)[C@H](CCC(=O)O)NC(=O)[C@H](CCC(=O)O)NC(=O)[C@@H](N)CCC(=O)O)CSSC[C@@H](C(=O)O)NC(=O)[C@@H]2CCCN2C(=O)[C@@H]2CCCN2C(=O)[C@@H]2CCCN2C(=O)[C@H](CCCNC(=N)N)NC(=O)CNC(=O)[C@H](CO)NC(=O)[C@H](CO)NC(=O)[C@@H]2CCCN2C(=O)CNC(=O)CNC(=O)[C@H](CC(=O)O)NC(=O)[C@H](CCCCN)NC(=O)[C@H](CC(C)C)NC(=O)[C@H](Cc2c[nH]c3ccccc23)NC(=O)[C@H](CCC(N)=O)NC1=O [E5_SS] (H-EEECVRLYIQWLKDGGPSSGRPPPC-OH; disulfide 4-25) | 95% | 9 to 10 | 1.92 | 0.0363
CC[C@H](C)[C@@H]1NC(=O)[C@H](Cc2ccc(O)cc2)NC(=O)[C@H](CC(C)C)NC(=O)[C@H](CCCNC(=N)N)NC(=O)[C@H](C(C)C)NC(=O)[C@@H](NC(=O)[C@H](CCC(=O)O)NC(=O)[C@H](CCC(=O)O)NC(=O)[C@H](CCC(=O)O)NC(=O)[C@H](CCSC)NC(=O)[C@H](CCC(N)=O)NC(=O)[C@H](CCCCN)NC(=O)[C@H](CO)NC(=O)[C@H](CC(C)C)NC(=O)[C@@H](N)CC(=O)O)CSSC[C@@H](C(=O)O)NC(=O)[C@@H]2CCCN2C(=O)[C@@H]2CCCN2C(=O)[C@@H]2CCCN2C(=O)[C@H](CCCNC(=N)N)NC(=O)CNC(=O)[C@H](CO)NC(=O)[C@H](CO)NC(=O)[C@@H]2CCCN2C(=O)CNC(=O)CNC(=O)[C@H](CC(=O)O)NC(=O)[C@H](CCCCN)NC(=O)[C@H](CC(C)C)NC(=O)[C@H](Cc2c[nH]c3ccccc23)NC(=O)[C@H](CCC(N)=O)NC1=O [E11_SS] (H-DLSKQMEEECVRLYIQWLKDGGPSSGRPPPC-OH; disulfide 10-31) | ≈84% | 138 | 27.65 | 0.00253
